Source: ChEMBL document CHEMBL1201862, “PubChem BioAssay data set” (2004)
The source made the active and inactive calls.

Assays:
Format in all cases: functional
[1] = biological target: T1, Orexin/Hypocretin receptor type 1 (Homo sapiens, UniProt O43613); assay: (§1) Fluorescence-based cell-based high throughput dose response assay for antagonists of the orexin 1 receptor (OX1R; HCRTR1). [Related pubchem assays (depositor defined):AID434989, AID435008, AID463079, AID485270, AID492963, AID492964, AID492965, AID493232, AID504717, AID504718]
T1 sequence (O43613 whole entry): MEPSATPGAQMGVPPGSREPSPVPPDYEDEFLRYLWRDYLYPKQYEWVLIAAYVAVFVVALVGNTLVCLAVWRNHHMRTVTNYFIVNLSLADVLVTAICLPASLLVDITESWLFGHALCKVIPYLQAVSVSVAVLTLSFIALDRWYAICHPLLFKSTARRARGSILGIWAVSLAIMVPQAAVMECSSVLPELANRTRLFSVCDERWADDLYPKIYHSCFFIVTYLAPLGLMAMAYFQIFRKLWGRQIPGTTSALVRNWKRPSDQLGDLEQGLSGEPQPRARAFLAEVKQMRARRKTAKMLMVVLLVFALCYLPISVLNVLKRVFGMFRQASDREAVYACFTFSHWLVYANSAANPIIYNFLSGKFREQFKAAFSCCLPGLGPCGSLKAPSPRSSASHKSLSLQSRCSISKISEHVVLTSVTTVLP

[2] = biological target: T2, Orexin receptor type 2 (Homo sapiens, UniProt O43614); assay: Counterscreen assay for antagonists of the orexin 1 receptor (OX1R; HCRTR1): Fluorescence-based cell-based dose response assay for antagonists of the orexin 2 receptor (OX2R; HCRTR2), run by assay provider.
T2 sequence (O43614 whole entry): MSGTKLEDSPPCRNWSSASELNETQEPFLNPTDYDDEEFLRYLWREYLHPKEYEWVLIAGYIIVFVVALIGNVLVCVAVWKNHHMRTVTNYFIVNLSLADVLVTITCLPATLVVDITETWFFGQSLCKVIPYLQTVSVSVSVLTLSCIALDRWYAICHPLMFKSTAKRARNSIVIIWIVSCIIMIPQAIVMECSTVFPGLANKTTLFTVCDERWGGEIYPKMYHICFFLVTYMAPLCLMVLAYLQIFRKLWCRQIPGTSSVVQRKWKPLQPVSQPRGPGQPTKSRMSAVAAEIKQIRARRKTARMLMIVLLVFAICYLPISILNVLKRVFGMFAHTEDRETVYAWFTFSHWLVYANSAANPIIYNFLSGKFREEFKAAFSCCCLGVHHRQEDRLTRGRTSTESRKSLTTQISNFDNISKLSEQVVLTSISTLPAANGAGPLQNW

[3] = (§2) Counterscreen for antagonists of the orexin 1 receptor (OX1R; HCRTR1): Fluorescence-based cell-based high throughput dose response assay to identify antagonists of the parental CHO cell line. [Related pubchem assays (depositor defined):AID434989, AID435008, AID463079, AID485270, AID492963, AID492964, AID492965, AID493232, AID504699, AID504701]
[4] = biological target: T2, Orexin receptor type 2; assay: Counterscreen assay for antagonists of the orexin 1 receptor (OX1R; HCRTR1): Homogeneous Time Resolved Fluorescence (HTRF)-based cell-based dose response assay for antagonists of the orexin 2 receptor (OX2R; HCRTR2), run by assay provider.
[5] = system: CHO-K1; assay: as §2, with “Homogeneous time resolved fluorescence (HTRF)-based” for “Fluorescence-based”, “cell-based” for “cell-based high throughput”, “CHO-K1” for “CHO”; settings: Cricetulus griseus;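 also: potency for inhibition of ATP-stimulated IP1 production as antagonists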
[6] = biological target: T1, Orexin/Hypocretin receptor type 1; assay: as §1, with “Homogeneous Time Resolved Fluorescence (HTRF)-based” for “Fluorescence-based”
[7] = biological target: T3, Sentrin-specific protease 6 (Homo sapiens, UniProt Q9GZR1); assay: SAR Analysis of small molecule inhibitors of Sentrin-specific protease 6 (SENP6) using a Luminescent assay. [Related pubchem assays (depositor defined):AID2582, AID2599]
T3 sequence (Q9GZR1 whole entry): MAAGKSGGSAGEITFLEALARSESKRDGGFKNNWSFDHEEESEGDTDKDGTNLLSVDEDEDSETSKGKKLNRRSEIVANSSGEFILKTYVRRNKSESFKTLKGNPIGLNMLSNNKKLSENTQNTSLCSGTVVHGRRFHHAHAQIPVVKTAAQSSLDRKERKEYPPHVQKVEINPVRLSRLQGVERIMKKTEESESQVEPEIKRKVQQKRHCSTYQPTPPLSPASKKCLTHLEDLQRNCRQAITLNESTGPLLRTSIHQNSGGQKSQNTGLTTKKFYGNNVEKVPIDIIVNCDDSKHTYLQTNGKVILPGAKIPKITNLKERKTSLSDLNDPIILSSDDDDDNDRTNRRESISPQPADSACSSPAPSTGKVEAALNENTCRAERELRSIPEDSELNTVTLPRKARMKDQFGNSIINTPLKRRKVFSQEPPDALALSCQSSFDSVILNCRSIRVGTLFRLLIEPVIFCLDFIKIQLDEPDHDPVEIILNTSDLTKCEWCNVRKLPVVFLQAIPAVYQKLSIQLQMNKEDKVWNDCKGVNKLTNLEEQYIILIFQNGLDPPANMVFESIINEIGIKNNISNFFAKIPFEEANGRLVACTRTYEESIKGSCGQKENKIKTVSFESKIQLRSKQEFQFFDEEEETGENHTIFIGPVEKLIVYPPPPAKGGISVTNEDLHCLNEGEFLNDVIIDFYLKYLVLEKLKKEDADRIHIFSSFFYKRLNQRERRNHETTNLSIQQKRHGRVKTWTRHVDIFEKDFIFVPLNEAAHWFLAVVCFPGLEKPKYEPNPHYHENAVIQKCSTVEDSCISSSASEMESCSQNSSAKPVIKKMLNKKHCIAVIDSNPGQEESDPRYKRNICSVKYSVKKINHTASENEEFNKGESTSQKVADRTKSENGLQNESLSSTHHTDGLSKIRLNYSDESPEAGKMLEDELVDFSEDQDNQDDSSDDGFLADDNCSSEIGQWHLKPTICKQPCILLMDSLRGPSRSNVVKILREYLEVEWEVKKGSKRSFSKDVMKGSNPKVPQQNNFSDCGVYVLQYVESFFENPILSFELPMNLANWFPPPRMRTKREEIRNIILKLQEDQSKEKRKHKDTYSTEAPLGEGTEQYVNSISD

[8] = biological target: T4, Sentrin-specific protease 8 (Homo sapiens, UniProt Q96LD8);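 also: luminescence read-out of SENP8 inhibition, dose-response confirmation following an ultra-high-throughput screen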
T4 sequence (Q96LD8 whole entry): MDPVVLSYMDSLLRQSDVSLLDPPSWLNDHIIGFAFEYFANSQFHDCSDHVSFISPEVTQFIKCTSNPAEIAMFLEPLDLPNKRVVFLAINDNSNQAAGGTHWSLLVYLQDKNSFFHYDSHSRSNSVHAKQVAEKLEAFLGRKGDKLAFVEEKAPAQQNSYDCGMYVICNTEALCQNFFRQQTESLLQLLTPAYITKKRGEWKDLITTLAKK

[9] = biological target: T5, Caspase-3 (Homo sapiens, UniProt P42574); assay: SAR Analysis of small molecule inhibitors of Sentrin-specific proteases (SENPs) using a Caspase-3 Selectivity assay. [Related pubchem assays (depositor defined):AID2540, AID2599, AID434973, AID489001]
T5 sequence (P42574 whole entry): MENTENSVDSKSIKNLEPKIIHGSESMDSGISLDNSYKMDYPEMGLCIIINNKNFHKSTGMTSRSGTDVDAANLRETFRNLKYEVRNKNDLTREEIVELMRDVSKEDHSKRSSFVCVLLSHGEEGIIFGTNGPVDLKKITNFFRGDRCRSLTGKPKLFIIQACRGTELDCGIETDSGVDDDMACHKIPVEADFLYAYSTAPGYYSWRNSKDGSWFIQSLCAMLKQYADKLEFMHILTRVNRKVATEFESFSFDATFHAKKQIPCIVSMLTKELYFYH

[10] = biological target: T5, Caspase-3
[11] = biological target: T6, Sentrin-specific protease 7 (Homo sapiens, UniProt Q9BQF6); assay: SENP7 protease inhibitors, SAR follow-up, biochemical, luminescence (AID 504497)
T6 sequence (Q9BQF6 whole entry): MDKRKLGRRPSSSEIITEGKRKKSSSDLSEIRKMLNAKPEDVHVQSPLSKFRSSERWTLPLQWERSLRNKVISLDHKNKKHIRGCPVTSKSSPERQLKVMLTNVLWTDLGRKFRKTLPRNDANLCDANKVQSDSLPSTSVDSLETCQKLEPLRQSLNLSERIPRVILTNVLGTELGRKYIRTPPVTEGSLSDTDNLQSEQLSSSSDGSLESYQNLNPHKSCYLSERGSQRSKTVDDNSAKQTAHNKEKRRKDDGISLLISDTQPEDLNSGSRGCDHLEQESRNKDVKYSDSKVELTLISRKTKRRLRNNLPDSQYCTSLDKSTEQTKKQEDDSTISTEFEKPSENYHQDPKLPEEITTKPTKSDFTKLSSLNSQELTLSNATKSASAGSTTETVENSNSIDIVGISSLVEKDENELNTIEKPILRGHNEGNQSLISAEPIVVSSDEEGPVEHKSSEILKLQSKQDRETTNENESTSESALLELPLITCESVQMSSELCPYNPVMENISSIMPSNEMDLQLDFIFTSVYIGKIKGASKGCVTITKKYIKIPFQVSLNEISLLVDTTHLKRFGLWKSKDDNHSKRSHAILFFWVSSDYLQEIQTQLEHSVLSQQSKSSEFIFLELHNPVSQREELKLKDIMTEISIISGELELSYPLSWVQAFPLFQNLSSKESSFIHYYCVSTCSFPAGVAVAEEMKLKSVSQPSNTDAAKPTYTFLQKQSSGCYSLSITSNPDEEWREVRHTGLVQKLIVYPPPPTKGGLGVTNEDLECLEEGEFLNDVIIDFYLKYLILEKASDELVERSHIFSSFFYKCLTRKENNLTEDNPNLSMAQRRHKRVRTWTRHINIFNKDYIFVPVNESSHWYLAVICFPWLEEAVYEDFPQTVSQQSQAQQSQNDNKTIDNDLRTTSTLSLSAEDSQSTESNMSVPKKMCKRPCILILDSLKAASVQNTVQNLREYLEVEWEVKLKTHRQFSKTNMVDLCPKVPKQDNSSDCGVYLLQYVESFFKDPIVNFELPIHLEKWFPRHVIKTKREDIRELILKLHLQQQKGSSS

[12] = biological target: T3, Sentrin-specific protease 6
[13] = biological target: T6, Sentrin-specific protease 7

IC50 [7] | IC50 [9] | IC50 [10] | IC50 [11] | IC50 [12] | IC50 [13] | Compound | IC50 [1] | IC50 [2] | IC50 [3] | IC50 [4] | IC50 [5] | IC50 [6] | IC50 [8]
– | – | – | – | – | – | Cc1c(C(=O)Nc2ccc(N3CCOCC3)cc2)oc2ccccc12 | 1.46 µM (active) | > 88.8 µM (inactive) | > 49.8 µM (inactive) | > 50 µM (inactive) | > 66.2 µM (inactive) | 0.277 µM (active) | –
1.68 µM (active) | 1.31 µM (active) | 7.14 µM (active) | 2.16 µM (active) | 8.99 µM (active) | 5.33 µM (active) | Fc1ccc(COc2ccc(C(=S)N3CCCC3)cc2)cc1 | – | – | – | – | – | – | 2.46 µM (active)
– | – | – | – | – | – | O=C(N/N=C/c1c(Cl)[nH]c2ccccc12)c1sc2ccccc2c1Cl | 3.23 µM (active) | > 88.8 µM (inactive) | > 49.7 µM (inactive) | 6.88 µM (active) | > 66.2 µM (inactive) | 2.14 µM (active) | –
